Laboratory results as given in patent publication US10273242B2, “Compound inhibiting activities of BTK and/or JAK3 kinases” (BEIJING HANMI PHARMACEUTICAL CO., LTD., priority 2013, dated 2019).

Legend:
[1] = system: p-PLCγ2 (pY1217) in Ramos cells; assay: p-PLCγ2 inhibition assay in Ramos cells (Western blot); assay type: cell-based; conditions: compound 1 hour, anti-human IgM stimulation
Protocol: Ramos cells (purchased from the Beijing Union Medical College) with starvation culture for 1 hour were treated with the compounds of the present invention for 1 hour, and then rinsed with PBS buffer (pH 7.2) to remove the compounds. Then they were resuspended in 100 μL of serum-free culture medium containing 1 μM of anti-human IgM F(ab′)2 (purchased from SBA company, No.: 2022-01) and stimulated on ice for 10 minutes. The cells were rinsed with PBS buffer (pH 7.2) to remove IgM and resuspended in 100 μL of protein lysis buffer (purchased from Sigma, No.: C2978), and then prepared and quantified the protein sample. 100 μg of the protein sample were taken and loaded on polyacrylamide gels for electrophoresis under 200V of voltage. After electrophoresis, protein blots were transferred to a PVDF membrane. […] The protein expression was detected by coloration using ECL substrate (purchased from GE, No.: RPN2109).

[2] = system: DBA/1J mice; assay: Type II collagen-induced arthritis (CIA) model in DBA/1J mice; assay type: in vivo; conditions: 3 mg/kg and 10 mg/kg orally once a day for 14 days
Source text: The CIA model is a widely-used animal model in the study of drugs for the treatment of rheumatoid arthritis in human. The experimental animals used in this experiment are DBA/1J mice (male, 6 to 8 weeks of age, purchased from Shanghai Silaike Laboratroy Animal Co., Ltd., China). Mice were housed in an IVC system.
In order to induce the mice CIA model, a bovine type II collagen (CII) (purchased from Chondrex company, No.: 20022) solution was emulsified with the same volume of complete Freund's adjuvant (CFA) (purchased from Sigma-Aldrich, No.: F5881) using an electronic homogenizer to prepare an emulsion. Then, 70 μL of the prepared emulsion was intradermally injected into the base of the tail of the mice as a primary immunization. Three weeks after the primary immunization, one booster immunization was carried out. […] According to the following criteria, Mice were evaluated for the severity of arthritis using an established scoring system ranging from 0 to 4 (0 score: no evidence of edema or swelling; 1 score: mild edema and redness confined to the ankle joint or tarsal; 2 scores: mild edema and redness, from the ankle joint to the tarsal; 3 scores: moderate edema and redness, from the ankle joint to the metatarsal; and 4 scores: severe edema and redness, from the ankle to the whole instep and toes, or ankylosis of the ankle or wrist joints). […]

C=CC(=O)N1CC[C@@H](Nc2nc(Nc3cc(C)ns3)nc3ccsc23)C1 [Example 132, (R)-1-(3-((2-((3-methyl-isothiazol-5-yl)amino)thieno[3,2-d]pyrimidin-4-yl)amino)pyrrolidin-1-yl)prop-2-en-1-one]
inhibition of expression of p-PLCγ2 [1]: significantly inhibit the expressions of p-BTK and p-PLCγ2 in Ramos cells in a dose-dependent manner | therapeutic effect on arthritis (arthritis severity scores) [2]: good therapeutic effect on arthritis in the CIA model at the designed doses in a dose dependent manner
